Test results: PMC6753678, “Fueling Open Innovation for Malaria Transmission-Blocking Drugs: Hundreds of Molecules Targeting Early Parasite Mosquito Stages” (Frontiers in Microbiology, 2019)
Like-named read-outs stand apart in the source and are kept apart here.

Experiments:
HepG2 cells = assay: HepG2 cytotoxicity assay; details: for Pb ODA (this manuscript) HepG2 cytoxicity: HepG2 cytotoxicity listed with the Pb ODA data set (this manuscript); for IC50: read-out: HepG2 cytotoxicity assay IC50, dose response confirmation
Summary of the method: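 Cells at 2,500 per well in MEM with 10% fetal bovine serum and 1% NEAA were exposed to test compounds for 48 h at 37°C, 5% CO2. Viability was read by fluorescence, with percent inhibition calculated against 50 μM doxorubicin (positive) and DMSO (negative) controls.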

[1] = test system: P. berghei ookinete development; details: for % inhibition, Replicate A / % inhibition, Replicate B: primary screen at 1 μM
[2] = test system: 3D7-strain P. falciparum asexual parasites; assay: P. falciparum asexual growth inhibition assay (Pf GIA); assay type: cell-based, Plasmodium falciparum; details: dose response confirmation; read-out: Pf asexual growth inhibition assays IC50
Summary of the method: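 LDH readout: absorbance at 650 nm after 10 min at room temperature with lactate/APAD/NBT/diaphorase mix on thawed plates. Cultures (0.25% parasitemia, 2% hematocrit) were treated 72 h at 37°C in low-oxygen gas. Inhibition was normalised to 50 μM chloroquine and DMSO; n=3 biological replicates.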

[3] = read-out: Pb Ookinete development assay IC50, dose response confirmation
[4] = HepG2 values of the three screens unified
[5] = read-out: Pb ODA IC50, this manuscript
[6] = read-out: Pb ODA (this manuscript) IC50, P. berghei ookinete development assay, this manuscript
[7] = unified HepG2 value across the three screens

| SMILES | Pb ODA (this manuscript) HepG2 cytoxicity (HepG2 cells) [µM] | IC50 (HepG2 cells) [nM] | Is compound selective in assay? Pb ODA active? [1] | % inhibition, Replicate A [1] [%] | % inhibition, Replicate B [1] [%] | IC50 [1, 3] [nM] | IC50 [2] [nM] | Unified cytotox (HepG2 cells; [4]) [µM] | Is compound selective in assay? Pb ODA active? ([1]; 1: YES, 0: NO) | IC50 [1, 5] [nM] | IC50 [1, 6] [nM] | HepG2 cytoxicity (Pb ODA, this manuscript) (HepG2 cells) [µM] | Unified cytotox (HepG2 cells; [7]) [µM] |
| --- | --- | --- | --- | --- | --- | --- | --- | --- | --- | --- | --- | --- | --- |
| Cc1[nH]c(C)c([N+](=O)[O-])c(=O)c1-c1ccc(Oc2ccccc2)cc1 [TCMDC-135779] | 100.00 | 100000 | 1 (key: 1: YES; 0: NO) | 85.12 | 87.09 | 540 | 809 |  |  |  |  |  |  |
| Cc1[nH]c(C)c(-c2ccc(/C=C/c3ccccn3)cc2)c(=O)c1Cl [TCMDC-135787] |  | 100000 |  | 50.60 | 51.03 | 1050 | 1260 | 100.00 | 1 (1: YES) |  |  |  |  |
| COc1ccc(CCc2ccc(-c3c(C)[nH]c(C)c(Cl)c3=O)cc2)cc1OC [TCMDC-135789] |  | 100000 |  | 97.42 | 111.57 | 277 | 119 | 100.00 | 1 (1: YES) | 280 |  |  |  |
| Cc1[nH]c(C)c(-c2ccc(OCCCc3ccccn3)cc2)c(=O)c1Br.Cl [TCMDC-135795] | 0.17 | 170 | 0 (key: 1: YES; 0: NO) | 72.29 | 89.65 | 594 | 6.55 |  |  |  | 590 |  |  |
| Cc1[nH]c(C)c(-c2ccc(OCc3ccccc3C(F)(F)F)nc2)c(=O)c1Br [TCMDC-135796] |  | 3020 |  | 84.05 | 98.42 | 42 | 36 | 3.02 | 1 (1: YES) | 40 |  | 3.02 |  |
| COc1nc2c(CCN3CC[C@H](NCc4ccc5c(c4)NC(=O)CO5)[C@H](O)C3)c(Cl)cnc2cc1F.Cl [TCMDC-135805] | 12.02 | 12000 | 1 (key: 1: YES; 0: NO) | 46.55 | 63.06 | 770 | 1320 |  |  |  |  |  |  |
| Cc1[nH]c(C)c(-c2ccc(OCc3cc(C(F)(F)F)cc(C(F)(F)F)c3)nc2)c(=O)c1Cl [TCMDC-135814] |  | 1660 |  | 68.02 | 98.05 | 161 | 185 | 1.66 | 1 (1: YES) | 160 |  | 1.66 |  |
| Cc1[nH]c(C)c(-c2ccc(OCc3cc(C(F)(F)F)cc(C(F)(F)F)c3)nc2)c(=O)c1Br [TCMDC-135815] |  | 710 |  | 74.97 | 105.72 | 122 | 279 | 0.71 | 0 (0: NO) | 120 |  | 0.71 |  |
| CCCCCCCc1ccc(-c2c(C)[nH]c(C)c(Cl)c2=O)cn1 [TCMDC-135816] |  | 30900 |  | 56.53 | 81.98 | 581 | 355 | 30.90 | 1 (1: YES) | 580 |  | 30.90 |  |
| Cc1[nH]c(C)c(-c2ccc(-c3ccccc3C(F)(F)F)nc2)c(=O)c1Br [TCMDC-135881] |  | 100000 |  | 87.53 | 97.69 | 973 | 191 | 100.00 | 1 (1: YES) | 970 |  |  |  |
| Cc1[nH]c(C)c(-c2ccc(-c3cccc(C(F)(F)F)c3)nc2)c(=O)c1Br [TCMDC-135911] |  | 100000 |  | 105.47 | 112.19 | 400 | 45 | 100.00 | 1 (1: YES) |  |  |  |  |
| Cc1[nH]c(C)c(-c2ccc(-c3ccc(F)cc3)nc2)c(=O)c1Br [TCMDC-135925] |  | 33100 |  | 61.34 | 86.73 | 542 | 319 | 33.11 | 1 (1: YES) | 540 |  | 33.11 |  |
| Cc1[nH]c(C)c(-c2ccc(-c3ccccc3F)nc2)c(=O)c1Br [TCMDC-135926] |  | 100000 |  | 85.66 | 106.09 | 461 | 222 | 100.00 | 1 (1: YES) | 460 |  |  |  |
| Cc1[nH]c(C)c(-c2ccc(-c3ccccc3F)nc2)c(=O)c1Cl [TCMDC-135927] |  | 100000 |  | 86.73 | 100.97 | 432 | 339 | 100.00 | 1 (1: YES) | 430 |  |  |  |
| COc1cc(Nc2ncc3c(C)nc(-c4cccc(Nc5ccc(CN6CCS(=O)(=O)CC6)cc5)c4)n3n2)cc(OC)c1OC [TCMDC-136003] |  | 30900 |  | 93.24 | 100.90 | 175 | 1400 |  | 1 (1: YES) | 180 |  |  | 30.90 |
| Cc1noc(C)c1-c1ccc2c(Nc3ccc(Cl)cc3)c(C(N)=O)cnc2c1.Cl [TCMDC-136010] | 4.84 | 4840 | 0 (key: 1: YES; 0: NO) | 77.30 | 54.77 | 6660 | 53 |  |  |  | 6660 |  |  |
| Cc1[nH]c(C)c(-c2ccc(-c3ccc(C(F)(F)F)cc3C(F)(F)F)nc2)c(=O)c1Br [TCMDC-136013] |  | 7410 |  | 94.49 | 93.70 | 185 | 154 | 7.41 | 1 (1: YES) | 190 |  | 7.41 |  |
| Cc1[nH]c(C)c(-c2ccc(CCc3cccc(C(F)(F)F)c3)nc2)c(=O)c1Cl [TCMDC-136014] |  | 7080 |  | 91.00 | 104.63 | 123 | 93 | 7.08 | 1 (1: YES) | 120 |  | 7.08 |  |
| Cc1[nH]c(C)c(-c2ccc(-c3cc(C(F)(F)F)cc(C(F)(F)F)c3)nc2)c(=O)c1Br [TCMDC-136015] |  | 1260 |  | 84.59 | 96.22 | 107 | 24 | 1.26 | 1 (1: YES) | 110 |  | 1.26 |  |
| Cc1[nH]c(C)c(-c2ccc(-c3ccc(OC(F)(F)F)cc3)nc2)c(=O)c1Br [TCMDC-136016] |  | 100000 |  | 59.20 | 74.30 | 446 | 326 | 100.00 | 1 (1: YES) | 450 |  |  |  |
| Cc1[nH]c(C)c(-c2csc3ccccc23)c(=O)c1Cl [TCMDC-136017] |  | 100000 |  | 37.82 | 76.50 | 1840 | 2260 |  | 1 (1: YES) | 1840 |  |  | 100.00 |
| Cc1noc(C)c1-c1ccc2c(Nc3ccc(C(F)(F)F)cc3)c(C(N)=O)cnc2c1.Cl [TCMDC-136019] | 48.98 | 49000 | 0 (key: 1: YES; 0: NO) | 61.84 | 39.20 | 5460 | 365 |  |  |  | 5460 |  |  |
| Cc1nc2c(c([O-])c1Cl)-c1ccc(Oc3cccc(C(F)(F)F)c3)cc1C2=O.[Na+] [TCMDC-136021] |  | 39800 |  | 94.15 | 74.80 | 785 | 54 |  | 1 (1: YES) | 780 |  |  | 39.81 |
| Cc1noc(C)c1-c1ccc2c(Nc3ccc(C#N)cc3)c(C(N)=O)cnc2c1 [TCMDC-136029] | 69.18 | 69200 | 1 (key: 1: YES; 0: NO) | 61.24 | 98.78 | 3830 | 609 |  |  |  | 3830 |  |  |
